Source: US8637321B2, “Lipidomics approaches for central nervous system disorders” (priority 2005, dated 2014)

How the values were obtained:
[1] = system: patients with schizophrenia; assay: plasma lipid profiling pre- and post-treatment with antipsychotics; assay type: in vivo, human; as to CE18:3n3 I/D: key: I: increase; D: decrease; as to CE18:3n6 I/D: key: I: increase; D: decrease; as to CE20:3n6 I/D: key: I: increase; D: decrease; as to CE20:5n3 I/D: key: I: increase; D: decrease; as to FA18:0 I/D: key: I: increase; D: decrease; as to FA20:4n6 I/D: key: I: increase; D: decrease; as to FA22.1n9 I/D: key: I: increase; D: decrease; as to FASAT I/D: key: I: increase; D: decrease; as to FCLC I/D: key: I: increase; D: decrease; as to LY20:3n6 I/D: key: I: increase; D: decrease; as to LY20:3n9 I/D: key: I: increase; D: decrease; as to LY20:4n3 I/D: key: I: increase; D: decrease; as to LY20:5n3 I/D: key: I: increase; D: decrease; as to PC.n9 I/D: key: I: increase; D: decrease; as to PC18:0 I/D: key: I: increase; D: decrease; as to PC18:1n9 I/D: key: I: increase; D: decrease; as to PC20:2n6 I/D: key: I: increase; D: decrease; as to PC20:3n6 I/D: key: I: increase; D: decrease; as to PC20:3n9 I/D: key: I: increase; D: decrease; as to PC20:4n3 I/D: key: I: increase; D: decrease; as to PC20:5n3 I/D: key: I: increase; D: decrease; as to PC22:0 I/D: key: I: increase; D: decrease; as to PC22:4n6 I/D: key: I: increase; D: decrease; as to PCLC I/D: key: I: increase; D: decrease; as to PE18:3n6 I/D: key: I: increase; D: decrease; as to PE20:3n6 I/D: key: I: increase; D: decrease; as to PE20:3n9 I/D: key: I: increase; D: decrease; as to PE20:5n3 I/D: key: I: increase; D: decrease; as to PE22:5n6 I/D: key: I: increase; D: decrease; as to PELC I/D: key: I: increase; D: decrease; as to SP14:0 I/D: key: I: increase; D: decrease; as to SP20:3n6 I/D: key: I: increase; D: decrease; as to SPSAT I/D: key: I: increase; D: decrease; as to TG14:0 I/D: key: I: increase; D: decrease; as to TG18:0 I/D: key: I: increase; D: decrease; as to TG20:1n9 I/D: key: I: increase; D: decrease; as to TG20:3n6 I/D: key: I: increase; D: decrease; as to TG20:4n3 I/D: key: I: increase; D: decrease; as to TGLC I/D: key: I: increase; D: decrease
Text: (§1) Fifty male and female patients were recruited in two studies for metabolic profiling (Table VI and Table VII for demographics). Subjects ranged in age from 18 to 60 years and met the following inclusion criteria: a) DSM-IV criteria for schizophrenia, schizophreniform disorder, or schizoaffective disorder; b) newly hospitalized for a psychotic exacerbation in the setting of no antipsychotic treatment for at least 3 weeks prior to admission; and c) provided signed informed consent. Patients with psychoses due to psychoactive substance abuse or an underlying medical condition were excluded. Patients who were receiving treatment for diabetes mellitus or hyperlipidemia were also excluded.
The choice and dose of antipsychotic medication was based on the doctor's judgment. […] The treatment duration was 2-3 weeks. […] The mean duration of therapy was about 2 weeks for all 3 drugs in Study II. The drug groups were otherwise generally similar in severity of disease and physical characteristics (Table VI and Table VII). The 2-3 week duration permits the study of acute early effects.
All blood samples were drawn from subjects in the early morning after overnight fasting. Blood was drawn into vacutainer tubes containing sodium heparin, immediately placed on ice, and within 10 minutes, the blood was centrifuged and the plasma was transferred into polypropylene tubes and stored in a −30° C. freezer. All baseline samples were drawn prior to starting antipsychotic treatment in the study. If a patient had received a dose of an antipsychotic during the referral process (e.g., because of agitation when initially seen in a local emergency department), drawing of baseline plasma samples was delayed for 2-3 days. Follow-up samples were drawn after patients had received an average of 2-3 weeks of acute antipsychotic treatment.
A comprehensive assessment of plasma lipid profiles was performed (Lipomics Technologies, West Sacramento, Calif.) according to established methods (Watkins, et al. (2002) J. Lipid Res. 43(11):1809-17). Quantitative measurements of fatty acids in various lipid classes were determined as nmol fatty acid/gram of plasma. Lipid classes included cholesterol esters (CE), free cholesterol (FC), triacylglycerols (TG), diacylglycerols (DG), free fatty acids (FA), lysophosphatidylcholine (LY), phosphatidylcholine (PC), and phosphatidylethanolamine (PE). Lipid metabolites are identified by the lipid class and the fatty acid moiety. In the context of this invention, fatty acids are identified first by the number of carbons in the molecule (e.g., 20), the number of double bonds in the molecule (e.g., 4), and lastly the position of the double bonds (e.g., n6). To illustrate, PC20:4n6 denotes a phosphatidylcholine molecule containing a 20 carbon fatty acid with 4 double bonds at the n6 position.
Significant differences between pre- and post-drug treatment were assessed by paired t-tests. Evaluation of response to drug was assessed by two-way ANOVA. All statistics were done using R with the following functions: t.test, anova, prcomp, and g/m (Team RDC (2005) R: A language and environment for statistical computing. R Foundation for Statistical Computing). Before beginning statistical analyses, change detection was used to determine if observed signals were greater than that which could be expected by chance (noise). The chance distribution of p-values was determined by permuting the outcome groupings (Golub, et al. (1999) Science 286(5439):531-7). Briefly, P values for the appropriate comparison were calculated for each metabolite using a Student's t-test. The metabolites were ranked by p value from smallest to largest. The log of the rank versus the log of the p value for each comparison of interest was plotted and is represented by a colored line. The distribution of p values expected by chance at each rank is indicated by the shaded area. […]

[2] = system: patients with schizophrenia; assay: Clinical Global Impressions (CGI) Scale psychopathology assessment; assay type: in vivo, human; conditions: means and standard error; for CGI Affective, Post / CGI Negative, Post / CGI Positive, Post: CGI Scale 1 to 7, higher scores greater severity; for CGI Change, Post: overall global change rating at follow-up (1-2 responders, 3-6 non-responders)
Text: as §1
The choice and dose of antipsychotic medication was based on the doctor's judgment. […] The treatment duration was 2-3 weeks. […] The 2-3 week duration permits the study of acute early effects.
Psychopathology was assessed on the Clinical Global Impressions (CGI) Scale at baseline and at the time of follow-up blood draws. Scores for the CGI Scale can range from 1 to 7, with higher scores indicating greater severity of illness (Guy (1975) ECDEU Assessment Manual for Psychopharmacology: Publication ADM 76-338. Washington, D.C.: US Department of Health, Education, and Welfare). An overall global change rating was also made at the time of the follow-up blood draw.

[3] = cited from earlier work; for effect on serum lipids / effects on serum glucose: in vivo; for risk of DM / metabolic effect: patients with schizophrenia; for weight gain, mean increases during the first year of therapy: prospective data
[4] = Study I, plasma, post-treatment vs pre-treatment
[5] = Study II, plasma, post vs pre-treatment
[6] = plasma, mole percentage data, post treatment compared with pretreatment
[7] = plasma, total lipid class data (nmol/g sample), post treatment compared with pretreatment
[8] = Study I, after 2-3 weeks treatment
[9] = Study II, about 2 weeks treatment

Q: With `O=C1CCc2ccc(OCCCCN3CCN(c4cccc(Cl)c4Cl)CC3)cc2N1` [Aripiprazole, aripiprazole] as the molecule, how does the PE class concentration [1, 4] read?
A: increased

Q: And the fatty acid concentrations [1, 4]?
A: very little change

Q: And the lipid changes overall [1, 4]?
A: Minimal significant lipid changes

Q: What about the “n7 and n9 free fatty acids” value [1, 4] of the same molecule?
A: no change

Q: And the “total lipid classes other than PE” value [1, 4]?
A: no other total lipid class changes

Q: And the lipid changes overall ([1]; Study II (replication set), plasma, post vs pre-treatment)?
A: minimal lipid changes

Q: And the fatty acid concentrations [1, 5]?
A: very little change

Q: And the “other lipid classes (than PE)” value [1, 5]?
A: No significant changes

Q: And the PE concentration ([1]; Study II, plasma, post-treatment vs pre-treatment)?
A: increased

Q: And the “plasma fatty acid compositions” value ([1]; patients after treatment)?
A: affected minimally

Q: And the “CE18:0 I/D” value [1, 6]?
A: I

Q: And the “LY22.5n3 I/D” value [1, 6]?
A: I

Q: What about the “PC22:5n6 I/D” value [1, 6] of the same molecule?
A: I

Q: What about the “SP14:1n5 I/D” value [1, 6] of the same molecule?
A: I

Q: And the “SP18:3n3 I/D” value [1, 6]?
A: I

Q: And the “SPSAT I/D” value [1, 6]?
A: I

Q: What about the “TG18:0 I/D” value [1, 6] of the same molecule?
A: I

Q: And the “TG22:2n6 I/D” value [1, 6]?
A: I

Q: And the “PELC I/D” value [1, 7]?
A: I

Q: And the “CGI Affective, Post” value [2, 8]?
A: 1.5 ± 0.3

Q: And the “CGI Negative, Post” value [2, 8]?
A: 1.3 ± 0.3

Q: And the “CGI Positive, Post” value [2, 8]?
A: 2.5 ± 0.3

Q: What about the “CGI Change, Post” value ([2]; Study I) of the same molecule?
A: 2.5 ± 0.3

Q: What about the “CGI Affective, Post” value [2, 9] of the same molecule?
A: 1.4 ± 0.2

Q: And the “CGI Negative, Post” value [2, 9]?
A: 1.6 ± 0.3

Q: What about the “CGI Positive, Post” value [2, 9] of the same molecule?
A: 2.5 ± 0.2

Q: And the “CGI Change, Post” value ([2]; Study II)?
A: 2.8 ± 0.2

Q: And the “effect on serum lipids” value [3]?
A: lipid-neutral

Q: What about the “effects on serum glucose” value [3] of the same molecule?
A: minimal effects

Q: With `Cc1cc2c(s1)Nc1ccccc1N=C2N1CCN(C)CC1` [Olanzapine, olanzapine] as the molecule, how does the “CE18:3n3 I/D” value [1, 6] read?
A: I

Q: And the “CE18:3n6 I/D” value [1, 6]?
A: I

Q: And the “CE20:3n6 I/D” value [1, 6]?
A: I

Q: And the “CE20:5n3 I/D” value [1, 6]?
A: I

Q: And the “FA18:0 I/D” value [1, 6]?
A: I

Q: And the “FA20:4n6 I/D” value [1, 6]?
A: I

Q: What about the “FA22.1n9 I/D” value [1, 6] of the same molecule?
A: I

Q: What about the “FASAT I/D” value [1, 6] of the same molecule?
A: I

Q: And the “LY20:3n6 I/D” value [1, 6]?
A: I

Q: What about the “LY20:3n9 I/D” value [1, 6] of the same molecule?
A: I

Q: What about the “LY20:4n3 I/D” value [1, 6] of the same molecule?
A: I

Q: What about the “LY20:5n3 I/D” value [1, 6] of the same molecule?
A: I

Q: What about the “PC18:0 I/D” value [1, 6] of the same molecule?
A: I

Q: What about the “PC18:1n9 I/D” value [1, 6] of the same molecule?
A: I

Q: What about the “PC20:2n6 I/D” value [1, 6] of the same molecule?
A: I

Q: What about the “PC20:3n6 I/D” value [1, 6] of the same molecule?
A: I

Q: What about the “PC20:3n9 I/D” value [1, 6] of the same molecule?
A: I

Q: What about the “PC20:4n3 I/D” value [1, 6] of the same molecule?
A: I

Q: And the “PC20:5n3 I/D” value [1, 6]?
A: I

Q: And the “PC22:0 I/D” value [1, 6]?
A: I

Q: And the “PC22:4n6 I/D” value [1, 6]?
A: I

Q: And the “PC.n9 I/D” value [1, 6]?
A: I

Q: And the “PE18:3n6 I/D” value [1, 6]?
A: I

Q: And the “PE20:3n6 I/D” value [1, 6]?
A: I

Q: And the “PE20:3n9 I/D” value [1, 6]?
A: I

Q: And the “PE20:5n3 I/D” value [1, 6]?
A: I

Q: What about the “PE22:5n6 I/D” value [1, 6] of the same molecule?
A: I

Q: And the “SP14:0 I/D” value [1, 6]?
A: I

Q: What about the “SP20:3n6 I/D” value [1, 6] of the same molecule?
A: I

Q: And the “SPSAT I/D” value [1, 6]?
A: I

Q: And the “TG14:0 I/D” value [1, 6]?
A: I

Q: And the “TG20:1n9 I/D” value [1, 6]?
A: I

Q: What about the “TG20:3n6 I/D” value [1, 6] of the same molecule?
A: I

Q: And the “TG20:4n3 I/D” value [1, 6]?
A: I

Q: What about the “FCLC I/D” value [1, 7] of the same molecule?
A: I

Q: What about the “PCLC I/D” value [1, 7] of the same molecule?
A: I

Q: What about the “PELC I/D” value [1, 7] of the same molecule?
A: I

Q: What about the “TGLC I/D” value [1, 7] of the same molecule?
A: I

Q: What about the “CGI Affective, Post” value [2, 8] of the same molecule?
A: 1.5 ± 0.2

Q: What about the “CGI Negative, Post” value [2, 8] of the same molecule?
A: 2.2 ± 0.3

Q: And the “CGI Positive, Post” value [2, 8]?
A: 2.9 ± 0.2

Q: What about the “CGI Change, Post” value ([2]; Study I) of the same molecule?
A: 2.8 ± 0.2

Q: What about the “CGI Affective, Post” value [2, 9] of the same molecule?
A: 1.2 ± 0.2

Q: What about the “CGI Negative, Post” value [2, 9] of the same molecule?
A: 1 ± 0

Q: And the “CGI Positive, Post” value [2, 9]?
A: 2.4 ± 0.2

Q: And the “CGI Change, Post” value ([2]; Study II)?
A: 3 ± 0.3

Q: What about the “risk of DM / metabolic effect” value [3] of the same molecule?
A: higher risk

Q: What about the “weight gain, mean increases during the first year of therapy” value [3] of the same molecule?
A: 15.0-26.0 lbs

Q: For `CN1CCN(C2=Nc3cc(Cl)ccc3Nc3ccccc32)CC1` [clozapine], which “risk of DM / metabolic effect” value [3] is on record?
A: higher risk

Q: With `O=C(CCCN1CCC(O)(c2ccc(Cl)cc2)CC1)c1ccc(F)cc1` [haloperidol] as the molecule, how does the “risk of DM / metabolic effect” value [3] read?
A: metabolically neutral

Q: With `OCCOCCN1CCN(C2=Nc3ccccc3Sc3ccccc32)CC1` [quetiapine] as the molecule, how does the “effect on serum lipids” value [3] read?
A: discrepant data

Q: What about the “weight gain, mean increases during the first year of therapy” value [3] of the same molecule?
A: 6.1-12.3 lbs

Q: With `O=C1Cc2cc(CCN3CCN(c4nsc5ccccc45)CC3)c(Cl)cc2N1` [ziprasidone] as the molecule, how does the “effect on serum lipids” value [3] read?
A: lipid-neutral

Q: And the “effects on serum glucose” value [3]?
A: minimal effects
